In PubChem BioAssay AID330 (DTP/NCI, 2004):
“And” between values parts separate entries of the source, which are not always exact repeats. Identical values can stand only once. Toxic doses and inconclusive results are not listed. Rule for the calls: active = survival T/C of 150% or more; inactive = T/C below 125% in these data.

Test system: P388 leukemia ip, CD2F1 mice, survival T/C
Assay: NCI In Vivo Anticancer Drug Screen. Data for tumor model P388 Leukemia (intraperitoneal) in CD2F1 (CDF1) mice
Conditions: endpoint: median survival time, higher = longer survival
How it was run: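 Mice carrying the transplanted tumor received test compound or vehicle. Survival was recorded in each group, and the value is the treated-group measurement divided by that of the vehicle-treated control group.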

[1] = dose: 50.0 mg/kg/injection, schedule: Q01DX005 (ip), vehicle: saline with Tween-80
[2] = dose: 100.0 mg/kg/injection, schedule: Q01DX005 (ip), vehicle: saline with Tween-80
[3] = dose: 200.0 mg/kg/injection, schedule: Q01DX005 (ip), vehicle: saline with Tween-80
[4] = dose: 100.0 mg/kg/injection, schedule: Q01DX009 (ip), vehicle: Klucel (hydroxypropylcellulose) (HPC)
[5] = dose: 200.0 mg/kg/injection, schedule: Q01DX009 (ip), vehicle: Klucel (hydroxypropylcellulose) (HPC)
[6] = dose: 60.0 mg/kg/injection, schedule: Q01DX005 (ip), vehicle: saline with Tween-80
[7] = dose: 120.0 mg/kg/injection, schedule: Q01DX005 (ip), vehicle: saline with Tween-80
[8] = dose: 240.0 mg/kg/injection, schedule: Q01DX005 (ip), vehicle: saline with Tween-80
[9] = dose: 50.0 mg/kg/injection, schedule: Q01DX009 (ip), vehicle: Klucel (hydroxypropylcellulose) (HPC)
[10] = dose: 12.5 mg/kg/injection, schedule: Q01DX005 (ip), vehicle: Klucel (hydroxypropylcellulose) (HPC)
[11] = dose: 6.25 mg/kg/injection, schedule: Q01DX005 (ip), vehicle: saline with Tween-80
[12] = dose: 12.5 mg/kg/injection, schedule: Q01DX005 (ip), vehicle: saline with Tween-80
[13] = dose: 12.5 mg/kg/injection, schedule: Q01DX009 (ip), vehicle: saline with Tween-80
[14] = dose: 25.0 mg/kg/injection, schedule: Q01DX009 (ip), vehicle: saline with Tween-80
[15] = dose: 50.0 mg/kg/injection, schedule: Q01DX009 (ip), vehicle: saline with Tween-80
[16] = dose: 100.0 mg/kg/injection, schedule: Q04DX003 (ip), vehicle: saline with Tween-80
[17] = dose: 100.0 mg/kg/injection, schedule: Q01DX009 (ip), vehicle: saline with Tween-80
[18] = dose: 30.0 mg/kg/injection, schedule: Q01DX005 (ip), vehicle: saline with Tween-80

Measured: T/C

C=COC(=O)C(Cc1cccs1)NC(=O)OCc1ccccc1 (stereo not given)
inactive: [1] 101 % of control | [2] 96 % of control | [3] 95 % of control

C1=CC2CC1CC2[P+](c1ccccc1)(c1ccccc1)c1ccccc1 (stereo not given)
inactive: dose: 12.5 mg/kg/injection, schedule: Q01DX001 (ip), vehicle: saline 102 % of control | dose: 25.0 mg/kg/injection, schedule: Q01DX001 (ip), vehicle: saline 115 % of control | dose: 50.0 mg/kg/injection, schedule: Q01DX001 (ip), vehicle: saline 97 % of control

S=C(N/N=C/c1ccc(Cl)cc1)Nc1ccccc1
inactive: [4] 101 % of control | [5] 100 % of control | dose: 400.0 mg/kg/injection, schedule: Q01DX009 (ip), vehicle: Klucel (hydroxypropylcellulose) (HPC) 93 % of control

CCC(C)CN1CCc2c(c3c(c(OC)c2OC)CCC3)C1 (stereo not given)
inactive: dose: 50.0 mg/kg/injection, schedule: Q04DX002 (ip), vehicle: saline 101 % of control | dose: 100.0 mg/kg/injection, schedule: Q04DX002 (ip), vehicle: saline 102 % of control | dose: 200.0 mg/kg/injection, schedule: Q04DX002 (ip), vehicle: saline 96 % of control

Cc1cc2cc3c(=O)n(C)c(=O)nc-3n(CC(O)C(O)C(O)CO)c2cc1C (stereo not given)
inactive: dose: 15.0 mg/kg/injection, schedule: Q01DX009 (ip), vehicle: saline with Tween-80 98 % of control | dose: 30.0 mg/kg/injection, schedule: Q01DX009 (ip), vehicle: saline with Tween-80 98 % of control | dose: 60.0 mg/kg/injection, schedule: Q01DX009 (ip), vehicle: saline with Tween-80 113 % of control

Cc1ncc(C(O)c2ccc(Cl)cc2)n1Cc1ccccc1 (stereo not given)
inactive: [6] 96 % of control | [7] 104 % of control | [8] 99 % of control

C=C1C(=O)OC(C)(C)C1c1ccc(Cl)c(Cl)c1 (stereo not given)
inactive: [9] 93 % of control | [4] 92 % of control | [5] 97 % of control

CC1(C)OC2C(CO)OC(n3c(Br)nc4c(N)ncnc43)C2O1 (stereo not given)
inactive: [1] 100 % of control | [2] 103 % of control | [3] 100 % of control

CCOC(=O)C=C1CCC2(CC1)SCCS2
inactive: dose: 100.0 mg/kg/injection, schedule: Q01DX001 (ip), vehicle: other 104 % of control | dose: 200.0 mg/kg/injection, schedule: Q01DX001 (ip), vehicle: other 114 % of control | dose: 400.0 mg/kg/injection, schedule: Q01DX001 (ip), vehicle: other 117 % of control

O=C(O)/C=N/NS(=O)(=O)c1cccs1
inactive: dose: 12.5 mg/kg/injection, schedule: Q01DX009 (ip), vehicle: other 119 % of control

CN1N=C(C2=NN(C)C(=O)N(C)N2)NN(C)C1=O
inactive: [10] 101 % of control | dose: 25.0 mg/kg/injection, schedule: Q01DX005 (ip), vehicle: Klucel (hydroxypropylcellulose) (HPC) 97 % of control | dose: 50.0 mg/kg/injection, schedule: Q01DX005 (ip), vehicle: Klucel (hydroxypropylcellulose) (HPC) 104 % of control and 105 % of control

CN(C)c1ccc(C(=O)Cc2ccc3ccccc3n2)cc1
inactive: [9] 92 % of control | [4] 89 % of control | [5] 102 % of control

CC(C)=CCCC(C)(O)C1CC=C(C)CC1 (stereo not given)
inactive: dose: 20.0 mg/kg/injection, schedule: Q01DX005 (ip), vehicle: Klucel (hydroxypropylcellulose) (HPC) 95 % of control | dose: 40.0 mg/kg/injection, schedule: Q01DX005 (ip), vehicle: Klucel (hydroxypropylcellulose) (HPC) 95 % of control | dose: 80.0 mg/kg/injection, schedule: Q01DX005 (ip), vehicle: Klucel (hydroxypropylcellulose) (HPC) 98 % of control | dose: 160.0 mg/kg/injection, schedule: Q01DX005 (ip), vehicle: Klucel (hydroxypropylcellulose) (HPC) 98 % of control

c1ccc(-c2ncc[nH]2)cc1
inactive: dose: 100.0 mg/kg/injection, schedule: Q01DX001 (ip), vehicle: saline with Tween-80 98 % of control | dose: 200.0 mg/kg/injection, schedule: Q01DX001 (ip), vehicle: saline with Tween-80 97 % of control

CCS(=O)(=O)c1ccc(N2C(N)=NC(N)=NC2(C)C)cc1
inactive: [11] 103 % of control | [12] 100 % of control | dose: 25.0 mg/kg/injection, schedule: Q01DX005 (ip), vehicle: saline with Tween-80 103 % of control

S=C(N=Nc1ccccc1)NNc1ccccc1
inactive: [13] 100 % of control | [14] 95 % of control | [15] 90 % of control | [16] 90 % of control | dose: 200.0 mg/kg/injection, schedule: Q04DX003 (ip), vehicle: saline with Tween-80 86 % of control | dose: 400.0 mg/kg/injection, schedule: Q04DX003 (ip), vehicle: saline with Tween-80 100 % of control

COC(=O)C(/C=[N+](\[O-])C1CCCCC1)=C(\C=[N+](/[O-])C1CCCCC1)C(=O)OC
inactive: [6] 102 % of control | [7] 87 % of control | [8] 91 % of control

NNc1ncnc2ccc(Cl)cc12
inactive: [9] 111 % of control | [4] 111 % of control | [5] 113 % of control

[NH-]CC(=O)O.[NH-]CC(=O)O.[Ni+2]
inactive: [11] 100 % of control | [12] 100 % of control

CCN(CC)CCO/N=c1\nc(-c2ccccc2)c2cc(Cl)ccc2s1
inactive: dose: 50.0 mg/kg/injection, schedule: Q01DX009 (ip), vehicle: saline 100 % of control | dose: 100.0 mg/kg/injection, schedule: Q01DX009 (ip), vehicle: saline 103 % of control | dose: 200.0 mg/kg/injection, schedule: Q01DX009 (ip), vehicle: saline 104 % of control

CC/S(=N\S(=O)(=O)c1ccc(C)cc1)c1cccc[n+]1[O-] (stereo not given)
inactive: [6] 100 % of control | [7] 110 % of control | [8] 100 % of control

CCCCN(CCCC)C(=N)/C=C/c1ccccc1
inactive: dose: 6.25 mg/kg/injection, schedule: Q01DX005 (ip), vehicle: Klucel (hydroxypropylcellulose) (HPC) 97 % of control | [10] 103 % of control

CC1=NN(C(=O)c2ccncc2)C(=O)C1N=Nc1ccc(C)c([N+](=O)[O-])c1 (stereo not given)
inactive: [15] 107 % of control | [17] 101 % of control | dose: 200.0 mg/kg/injection, schedule: Q01DX009 (ip), vehicle: saline with Tween-80 97 % of control

CN(c1ccccc1)c1cc(O)[nH]c(=O)c1
inactive: dose: 12.5 mg/kg/injection, schedule: Q01DX009 (ip), vehicle: water 96 % of control | dose: 25.0 mg/kg/injection, schedule: Q01DX009 (ip), vehicle: water 111 % of control | dose: 50.0 mg/kg/injection, schedule: Q01DX009 (ip), vehicle: water 99 % of control | dose: 100.0 mg/kg/injection, schedule: Q01DX009 (ip), vehicle: water 100 % of control | dose: 200.0 mg/kg/injection, schedule: Q01DX009 (ip), vehicle: water 97 % of control

CCCCn1/c(=N/N=Nc2ccccc2)sc2ccccc21
inactive: dose: 7.5 mg/kg/injection, schedule: Q01DX005 (ip), vehicle: saline with Tween-80 115 % of control | dose: 15.0 mg/kg/injection, schedule: Q01DX005 (ip), vehicle: saline with Tween-80 117 % of control | [18] 118 % of control

O=C(NN(C(=O)c1ccccc1)c1ccccc1)c1ccccc1
inactive: [1] 95 % of control | [2] 92 % of control

CN1CCN(C)C(=O)C1=O
inactive: dose: 12.5 mg/kg/injection, schedule: Q04DX003 (ip), vehicle: suspension in saline 108 % of control | dose: 25.0 mg/kg/injection, schedule: Q04DX003 (ip), vehicle: suspension in saline 115 % of control | dose: 50.0 mg/kg/injection, schedule: Q04DX003 (ip), vehicle: suspension in saline 110 % of control

OC(c1cc(-c2ccccc2)nc2c(Cl)cc(Cl)cc12)C1CCCCN1 (stereo not given)
inactive: [13] 107 % of control | [14] 98 % of control | [15] 88 % of control and 95 % of control

CC(C)=C/C(C)=N/NC(N)=O
inactive: dose: 12.5 mg/kg/injection, schedule: Q04DX003 (ip), vehicle: saline with Tween-80 98 % of control | dose: 25.0 mg/kg/injection, schedule: Q04DX003 (ip), vehicle: saline with Tween-80 94 % of control | dose: 50.0 mg/kg/injection, schedule: Q04DX003 (ip), vehicle: saline with Tween-80 91 % of control | [16] 94 % of control

CC(CN1CCCCC1)C(=O)c1ccc(-c2ccccc2)cc1 (stereo not given)
inactive: [14] 100 % of control | [15] 105 % of control | [17] 100 % of control

COC1OC(C(C)O)C2OC(C)(C)OC12 (stereo not given)
inactive: [18] 101 % of control | [6] 104 % of control and 106 % of control | [7] 108 % of control | [8] 106 % of control and 110 % of control
